Among the data in ChEMBL document CHEMBL1125643, “N-(5-fluorobenzothiazol-2-yl)-2-guanidinothiazole-4-carboxamide. A novel, systemically active antitumor agent effective against 3LL Lewis lung carcinoma” (J Med Chem, 1991) are mortality and T/C values, retold here.

One may read the T/C as the ratio of treated to control.

Series [1] can be described thus: Drug related lethality is percent animals in treated groups dying prior to first tumor related death in untreated groups measured in BDF1 mice after ip administration at 50 mg/kg dose 2-4 days after tumor challenge. Type of series: toxicity, organism-based. Also noted: dose 50 mg/kg, route intraperitoneal. Conditions: BDF1, mus sp., in vivo, read-out: Lethality.

Series [2] has as its system Mus sp. In words: In vivo activity measured against 3LL metastasis in BDF1 mice after ip administration at 200 mg/kg dose, dosing on days 2-4 after tumor challenge. Type of series: functional. Conditions: route intraperitoneal.
Series [3] deals with Mus sp. In words: In vivo activity measured against 3LL metastasis in BDF1 mice after ip administration at 100 mg/kg dose, dosing on days 2-4 after tumor challenge. Conditions: route intraperitoneal. Type of series: functional.
The nature of series [4]: Drug related lethality is percent animals in treated groups dying prior to first tumor related death in untreated groups measured in BDF1 mice after ip administration at 25 mg/kg dose 2-4 days after tumor challenge. The format is toxicity, organism-based. Also noted: dose 25 mg/kg, route intraperitoneal. Conditions: BDF1, mus sp., in vivo, read-out: Lethality.
Series [5] has as its system Mus sp. In words: In vivo activity measured against 3LL metastasis in BDF1 mice after ip administration at 50 mg/kg dose, dosing on days 2-4 after tumor challenge. The format is functional. Conditions: route intraperitoneal.
Series [6] concerns Mus sp. In words: In vivo activity measured against 3LL metastasis in BDF1 mice after ip administration at 100 mg/kg dose, dosing on days 3-6 after tumor challenge. Conditions: route intraperitoneal. The format is functional.
The nature of series [7]: Drug related lethality is percent animals in treated groups dying prior to first tumor related death in untreated groups measured in BDF1 mice after ip administration at 100 mg/kg dose 3-6 days after tumor challenge. The format is toxicity, organism-based. Conditions: BDF1, mus sp., in vivo, read-out: Lethality. Also noted: dose 100 mg/kg, route intraperitoneal.
Series [8] relates to Mus sp. As to the kind of experiment: In vivo activity measured against 3LL metastasis in BDF1 mice after ip administration at 25 mg/kg dose, dosing on days 2-4 after tumor challenge. The format is functional. Conditions: route intraperitoneal.
Series [9] has as its system Mus sp. In words: In vivo activity measured against 3LL metastasis in BDF1 mice after ip administration at 50 mg/kg dose, dosing on days 3-6 after tumor challenge. The format is functional. Conditions: route intraperitoneal.
Series [10] is described as follows: Drug related lethality is percent animals in treated groups dying prior to first tumor related death in untreated groups measured in BDF1 mice after ip administration at 100 mg/kg dose 2-4 days after tumor challenge. Conditions: BDF1, mus sp., in vivo, read-out: Lethality. Also noted: dose 100 mg/kg, route intraperitoneal. Type of series: toxicity, organism-based.

Series [11] is described as follows: Drug related lethality is percent animals in treated groups dying prior to first tumor related death in untreated groups measured in BDF1 mice after ip administration at 200 mg/kg dose 2-4 days after tumor challenge. Type of series: toxicity, organism-based. Also noted: dose 200 mg/kg, route intraperitoneal. Conditions: BDF1, mus sp., in vivo, read-out: Lethality.

Regarding `O=c1[nH]cc(F)c(=O)[nH]1` [FLUOROURACIL], the mortality was 0% in series [1]; 0% in series [4]; 14% in [7]; 0% in [10]; 28% in series [11]. The T/C is recorded as 141% in the series on Mus sp. [2]; 127% in the series on Mus sp. [3]; 118% in the series on Mus sp. [5]; 125% in the series with Mus sp. [6]; 114% in the series with Mus sp. [8]; 109% with Mus sp. [9].
